# Results from patent US11446244B2 (priority 2020, dated 2022).
# Entries after “also recorded” stand apart in the source; their conditions may differ.
# What was measured:
# lung metastases = experiment: Example 9: osteosarcoma lung metastasis patient case, Gemcitabine dpi; type: in vivo; settings: Gemcitabine 60 dpi BID
# Text: 2 months later, after standard chemoradiotherapy is completed, they are found to have three 1-cm lung metastases. […] undergoes second line treatment but the lesions progress, so they are started on Gemcitabine 60 dpi BID and has stabilization for 12 months thereafter. Here also, Verteporfin, Ribavirin, and/or Gemcitabine dpi could all be given together coupled with inhaled or intravenous Perflubron (emulsion).
# [1] = intravenous administration; cited from earlier work
# Coronavirus = experiment: Example 7: coronavirus infection patient case, Ribavirin dpi; type: in vivo; settings: dpi 60 mg twice daily for 6 days, started after 2 days of fever
# Procedure: A nonsmoker having no previous lung disease develops symptoms of fever for 2 days and is then immediately started on Ribavirin dpi 2 p or 60 mg twice daily for 6 days. […] They avoid hospitalization and thereby avoids what may have been up to an increased 15-20% risk. Verteporfin and Gemcitabine dpi could be substituted for the Ribavirin.
# SARS-CoV = settings: BALB/c mice; cited from earlier work
# SARS-CoV-2 = settings: patients with severe COVID-19; intravenous Ribavirin versus supportive care only; cited from earlier work
# nsp14 = nsp14 (Severe acute respiratory syndrome coronavirus, UniProt P0C6X7); settings: cited from earlier work
# [2] = in vivo; cited from earlier work
# [3] = Example 8: COPD and bilateral pneumonia/ARDS patient case, acetylcysteine dpi; type: in vivo; settings: dpi every 4 hours with a bronchodilator
# Procedure: A smoker with history of moderate chronic obstructive pulmonary disease (COPD) mixed type who has been diagnosed with acute respiratory distress syndrome (ARDS) secondary to bilateral pneumonia. The patient has a very productive cough but not expectorating significant secretions and is currently on high flow system 70% FIO2 (fraction of inspired oxygen). […] The patient is initiated on acetylcysteine dpi every 4 hours along with a bronchodilator (e.g., DUONEB albuterol and ipratropium).
# [4] = Example 11: interstitial pulmonary fibrosis patient case, Verteporfin; type: in vivo; settings: 15 mg 1 p BID
# Text: A nonsmoker farmer has a diagnosis of interstitial pulmonary fibrosis with progressive symptoms over the past 6 months and with reduction in FVC by Pulmonary Function testing. […] Here also, Verteporfin combined with inhaled Perflubron nintedanib may be given. Subsequent or concomitant PDT and/or SDT promotes the elimination of myofibroblasts/macrophages that are otherwise engaged in fibrosis.
# Glioblastoma multiforme = experiment: Example 12: glioblastoma multiforme patient case, Verteporfin nasal and oral inhalation; type: in vivo; settings: 15 mg two puffs twice daily, six weeks
# Procedure: The patient had standard of care treatment that included surgical resection, radiation and chemotherapy, but then had recurrence and is not candidate for surgical curative intent.
# Immunohistochemistry at the 2nd operation is positive for PD-L1 and the patient is started on Verteporfin 15 mg two puffs twice daily both nasal and oral for the next six weeks. […] Here, drug delivery via intravenous route is avoided and possible direct brain delivery via nasal pathway is enabled. Here, systematic delivery of the drug by both nasal and oral inhalation is contemplated.
# [5] = cited from earlier work
# [6] = lipophilic solvents such as perfluorocarbons like perflubron; cited from earlier work
# [7] = target: YAP1 (yes-associated protein 1) (Homo sapiens, UniProt P46937); settings: cited from earlier work
# Sequence of YAP1 (yes-associated protein 1) (P46937 whole entry): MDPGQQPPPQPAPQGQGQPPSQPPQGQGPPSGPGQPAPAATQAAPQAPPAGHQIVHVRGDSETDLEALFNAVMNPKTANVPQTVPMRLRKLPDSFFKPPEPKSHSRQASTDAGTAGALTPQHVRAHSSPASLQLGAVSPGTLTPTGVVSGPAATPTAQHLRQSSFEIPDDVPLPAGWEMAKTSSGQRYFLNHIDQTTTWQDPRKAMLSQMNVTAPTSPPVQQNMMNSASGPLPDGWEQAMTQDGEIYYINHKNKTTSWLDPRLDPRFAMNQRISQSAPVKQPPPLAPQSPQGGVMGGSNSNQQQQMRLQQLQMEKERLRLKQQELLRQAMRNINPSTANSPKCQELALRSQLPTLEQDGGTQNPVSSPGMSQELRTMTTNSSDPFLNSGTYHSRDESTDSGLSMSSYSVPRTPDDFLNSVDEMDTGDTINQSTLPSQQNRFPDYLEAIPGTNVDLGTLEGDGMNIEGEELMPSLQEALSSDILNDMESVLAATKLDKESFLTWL
molecule,measurement,setting,value
Nc1ccn([C@@H]2O[C@H](CO)[C@@H](O)C2(F)F)c(=O)n1 [Gemcitabine],duration of stabilization of lung metastases,lung metastases,12 months
same,warning label adverse effects,[1],can suppress bone marrow function
NC(=O)c1ncn([C@@H]2O[C@H](CO)[C@@H](O)[C@H]2O)n1 [Ribavirin],clinical outcome (symptoms),Coronavirus,symptomatic improvement
same,SARS-CoV infection in treated mice,SARS-CoV,increased SARS-CoV1 infection
same,negative conversion time for SARS-CoV-2 test,SARS-CoV-2,not associated with improved negative conversion time; also recorded: not associated with reduced negative conversion time
same,excision of Ribavirin by exonuclease activity of nsp14,nsp14,can efficiently excise
same,hemoglobin concentrations,[2],reduces hemoglobin concentrations
"CC(=O)N[C@@H](CS)C(=O)O [acetylcysteine, N-acetyl cysteine]",clinical outcome (need for mechanical ventilation),[3],avoid mechanical ventilation
Verteporfin,effect on lung decline,[4],stabilizing effect on lung decline
same,tumor mass,Glioblastoma multiforme,overall reduction in tumor mass
same,extent of exposure and maximal plasma concentration versus dose,[5]; dose between 6-20 mg/m^2,proportional to the dose
same,serum half-life,[5]; in vivo,5 to 6 h
same,solubility,[6],soluble in lipophilic solvents
same,YAP1 inhibition,[7],inhibits YAP1
